What was measured:
Assay in all cases: relative viability (nuclei count vs DMSO), 5 days (fraction); higher = more cells survive
LCLC-97TM1 = tested on: LCLC-97TM1
In short: (§1)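 After 5 days of treatment, lung cancer cells in 1536-well plates were fixed and stained in a single step (final 0.05% Triton X-100, 1% formaldehyde, 1 ug/ml Hoechst) and their nuclei counted on 4× images. Treatment had been applied by pin tool the day after seeding as one drug alone or as a fixed anchor-drug dose with five library-drug doses (not always all listed) in √10 steps. Relative viability is the nuclei count of treated wells divided by that of vehicle wells, and values are medians of duplicate plates.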

LU99A = tested on: LU99A
In short: as §1

LXF-289 = tested on: LXF-289
In short: as §1

NCI-H1993 = tested on: NCI-H1993
In short: as §1

NCI-H2009 = tested on: NCI-H2009
In short: as §1

NCI-H2087 = tested on: NCI-H2087
In short: as §1

NCI-H2126 = tested on: NCI-H2126
In short: as §1

NCI-H2170 = tested on: NCI-H2170
In short: as §1

NCI-H727 = tested on: NCI-H727
In short: as §1

PC-14 = tested on: PC-14
In short: as §1

PC-3 [JPC-3] = tested on: PC-3 [JPC-3]
In short: as §1

SK-MES-1 = tested on: SK-MES-1
In short: as §1

SMILES: O=C(O)CCCCC(CCSCc1ccccc1)SCc1ccccc1 (stereo not drawn) [CPI-613] + CS(=O)(=O)N1CCN(Cc2cc3nc(-c4cccc5[nH]ncc45)nc(N4CCOCC4)c3s2)CC1 [Pictilisib] (partner 1 µM)
- relative viability (LCLC-97TM1; first compound 50 µM): 0.174
- relative viability (LCLC-97TM1; first compound 158.11 µM): 0.192
- relative viability (LCLC-97TM1; first compound 500 µM): 0.0531
- relative viability (LU99A; first compound 5 µM): 0.289
- relative viability (LU99A; first compound 15.81 µM): 0.322
- relative viability (LU99A; first compound 50 µM): 0.339
- relative viability (LU99A; first compound 158.11 µM): 0.256
- relative viability (LU99A; first compound 500 µM): 0.0798
- relative viability (LXF-289; first compound 5 µM): 0.716
- relative viability (LXF-289; first compound 15.81 µM): 0.752
- relative viability (LXF-289; first compound 50 µM): 0.728
- relative viability (LXF-289; first compound 158.11 µM): 0.479
- relative viability (LXF-289; first compound 500 µM): 0.0147
- relative viability (NCI-H1993; first compound 5 µM): 0.762
- relative viability (NCI-H1993; first compound 15.81 µM): 0.698
- relative viability (NCI-H1993; first compound 50 µM): 0.715
- relative viability (NCI-H1993; first compound 158.11 µM): 0.648
- relative viability (NCI-H1993; first compound 500 µM): 0.496
- relative viability (NCI-H2009; first compound 5 µM): 0.855
- relative viability (NCI-H2009; first compound 15.81 µM): 0.675
- relative viability (NCI-H2009; first compound 50 µM): 0.722
- relative viability (NCI-H2009; first compound 158.11 µM): 0.0928
- relative viability (NCI-H2009; first compound 500 µM): 0.0311
- relative viability (NCI-H2087; first compound 5 µM): 0.87
- relative viability (NCI-H2087; first compound 15.81 µM): 0.702
- relative viability (NCI-H2087; first compound 50 µM): 0.733
- relative viability (NCI-H2087; first compound 158.11 µM): 0.587
- relative viability (NCI-H2087; first compound 500 µM): 0.0127
- relative viability (NCI-H2126; first compound 5 µM): 0.539
- relative viability (NCI-H2126; first compound 15.81 µM): 0.457
- relative viability (NCI-H2126; first compound 50 µM): 0.499
- relative viability (NCI-H2126; first compound 158.11 µM): 0.395
- relative viability (NCI-H2126; first compound 500 µM): 0.393
- relative viability (NCI-H2170; first compound 5 µM): 0.293
- relative viability (NCI-H2170; first compound 15.81 µM): 0.307
- relative viability (NCI-H2170; first compound 50 µM): 0.256
- relative viability (NCI-H2170; first compound 158.11 µM): 0.293
- relative viability (NCI-H2170; first compound 500 µM): 0.0903
- relative viability (NCI-H727; first compound 5 µM): 0.359
- relative viability (NCI-H727; first compound 15.81 µM): 0.348
- relative viability (NCI-H727; first compound 50 µM): 0.348
- relative viability (NCI-H727; first compound 158.11 µM): 0.33
- relative viability (NCI-H727; first compound 500 µM): 0.0223
- relative viability (PC-14; first compound 5 µM): 0.747
- relative viability (PC-14; first compound 15.81 µM): 0.677
- relative viability (PC-14; first compound 50 µM): 0.637
- relative viability (PC-14; first compound 158.11 µM): 0.725
- relative viability (PC-14; first compound 500 µM): 0.526
- relative viability (PC-3 [JPC-3]; first compound 5 µM): 0.683
- relative viability (PC-3 [JPC-3]; first compound 15.81 µM): 0.617
- relative viability (PC-3 [JPC-3]; first compound 50 µM): 0.656
- relative viability (PC-3 [JPC-3]; first compound 158.11 µM): 0.636
- relative viability (PC-3 [JPC-3]; first compound 500 µM): 0.404
- relative viability (SK-MES-1; first compound 5 µM): 0.368
- relative viability (SK-MES-1; first compound 15.81 µM): 0.314
- relative viability (SK-MES-1; first compound 50 µM): 0.363
- relative viability (SK-MES-1; first compound 158.11 µM): 0.399
- relative viability (SK-MES-1; first compound 500 µM): 0.371

Reference: the supplement of paper PMC10307832
